Measurements taken from PubChem BioAssay (NCI).
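In this assay, cells in 96-well plates receive the compound at five concentrations for 48 hours. Endpoints are linearly interpolated between the surrounding concentrations. TGI: concentration producing complete growth inhibition.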

Experiments:
Assay in all cases: inhibition of tumour cell growth, NCI panel, 48 h
[1] = tested on: 786-0 renal
[2] = tested on: A498 renal
[3] = tested on: A549 NSCLC
[4] = tested on: ACHN renal
[5] = tested on: CAKI-1 renal
[6] = tested on: CCRF-CEM leukemia
[7] = tested on: COLO 205 colon
[8] = tested on: DLD-1 colon
[9] = tested on: DMS 114 small cell lung
[10] = tested on: DMS 273 small cell lung
[11] = tested on: EKVX NSCLC
[12] = tested on: HCC-2998 colon
[13] = tested on: HCT-116 colon
[14] = tested on: HCT-15 colon
[15] = tested on: HL-60(TB) leukemia
[16] = tested on: HOP-18 NSCLC
[17] = tested on: HOP-62 NSCLC
[18] = tested on: HOP-92 NSCLC
[19] = tested on: HT29 colon
[20] = tested on: IGROV1 ovarian
[21] = tested on: K-562 leukemia
[22] = tested on: KM12 colon
[23] = tested on: KM20L2 colon
[24] = tested on: LOX IMVI melanoma
[25] = tested on: LXFL 529 NSCLC
[26] = tested on: M14 melanoma
[27] = tested on: M19-MEL melanoma
[28] = tested on: MALME-3M melanoma
[29] = tested on: MOLT-4 leukemia
[30] = tested on: NCI-H226 lung
[31] = tested on: NCI-H23 lung
[32] = tested on: NCI-H460 lung
[33] = tested on: NCI-H522 lung
[34] = tested on: OVCAR-3 ovarian
[35] = tested on: OVCAR-4 ovarian
[36] = tested on: OVCAR-5 ovarian
[37] = tested on: OVCAR-8 ovarian
[38] = tested on: RPMI-8226 leukemia
[39] = tested on: SF-268 CNS
[40] = tested on: SF-295 CNS
[41] = tested on: SF-539 CNS
[42] = tested on: SK-MEL-2 melanoma
[43] = tested on: SK-MEL-28 melanoma
[44] = tested on: SK-MEL-5 melanoma
[45] = tested on: SK-OV-3 ovarian
[46] = tested on: SN12C renal
[47] = tested on: SNB-19 CNS
[48] = tested on: SNB-75 CNS
[49] = tested on: SNB-78 CNS
[50] = tested on: SR leukemia
[51] = tested on: SW-620 colon
[52] = tested on: TK-10 renal
[53] = tested on: U251 CNS
[54] = tested on: UACC-257 melanoma
[55] = tested on: UACC-62 melanoma
[56] = tested on: UO-31 renal
[57] = tested on: XF 498 CNS
[58] = tested on: RXF 393 renal
[59] = tested on: RXF-631 renal

## COc1cc2c3c(c1OC)C(=O)C=C3N(S(=O)(=O)c1ccc(C)cc1)CC2
[1]
  TGI: > 100 µM
[2]
  TGI: > 100 µM
[3]
  TGI: > 100 µM
[4]
  TGI: > 100 µM
[5]
  TGI: > 100 µM
[6]
  TGI: > 100 µM
[7]
  TGI: > 100 µM
[8]
  TGI: > 100 µM
[9]
  TGI: > 100 µM
[10]
  TGI: > 100 µM
[11]
  TGI: > 100 µM
[12]
  TGI: > 100 µM
[13]
  TGI: > 100 µM
[14]
  TGI: > 100 µM
[15]
  TGI: > 100 µM
[16]
  TGI: > 100 µM
[17]
  TGI: > 100 µM
[18]
  TGI: > 100 µM
[19]
  TGI: > 100 µM
[20]
  TGI: > 100 µM
[21]
  TGI: > 100 µM
[22]
  TGI: > 100 µM
[23]
  TGI: > 100 µM
[24]
  TGI: > 100 µM
[25]
  TGI: > 100 µM
[26]
  TGI: > 100 µM
[27]
  TGI: > 100 µM
[28]
  TGI: > 100 µM
[29]
  TGI: > 100 µM
[30]
  TGI: > 100 µM
[31]
  TGI: > 100 µM
[32]
  TGI: > 100 µM
[33]
  TGI: 38.6 µM
[34]
  TGI: > 100 µM
[35]
  TGI: > 100 µM
[36]
  TGI: > 100 µM
[37]
  TGI: > 100 µM
[38]
  TGI: > 100 µM
[39]
  TGI: > 100 µM
[40]
  TGI: > 100 µM
[41]
  TGI: > 100 µM
[42]
  TGI: > 100 µM
[43]
  TGI: > 100 µM
[44]
  TGI: > 100 µM
[45]
  TGI: > 100 µM
[46]
  TGI: > 100 µM
[47]
  TGI: > 100 µM
[48]
  TGI: > 100 µM
[49]
  TGI: > 100 µM
[50]
  TGI: > 100 µM
[51]
  TGI: > 100 µM
[52]
  TGI: > 100 µM
[53]
  TGI: > 100 µM
[54]
  TGI: > 100 µM
[55]
  TGI: > 100 µM
[56]
  TGI: > 100 µM
[57]
  TGI: > 100 µM

## CC(C)C(=S)N(C)O
[1]
  TGI: > 100 µM
[2]
  TGI: 63.1 µM
[3]
  TGI: > 100 µM
[4]
  TGI: > 100 µM
[5]
  TGI: > 100 µM
[7]
  TGI: > 100 µM
[8]
  TGI: > 100 µM
[9]
  TGI: 19.3 µM
[11]
  TGI: > 100 µM
[12]
  TGI: > 100 µM
[13]
  TGI: 19.9 µM
[14]
  TGI: > 100 µM
[15]
  TGI: > 24.2 µM
[17]
  TGI: > 93.3 µM
[18]
  TGI: > 100 µM
[19]
  TGI: 13.2 µM
[20]
  TGI: > 100 µM
[21]
  TGI: > 100 µM
[22]
  TGI: > 72.9 µM
[23]
  TGI: > 100 µM
[24]
  TGI: 62.5 µM
[25]
  TGI: > 100 µM
[26]
  TGI: > 100 µM
[27]
  TGI: > 57.4 µM
[28]
  TGI: > 100 µM
[29]
  TGI: > 24.7 µM
[30]
  TGI: > 100 µM
[31]
  TGI: > 100 µM
[32]
  TGI: > 75.5 µM
[33]
  TGI: > 27.2 µM
[34]
  TGI: > 100 µM
[35]
  TGI: > 100 µM
[36]
  TGI: > 100 µM
[37]
  TGI: > 100 µM
[38]
  TGI: > 52.6 µM
[58]
  TGI: > 100 µM
[59]
  TGI: > 100 µM
[39]
  TGI: > 100 µM
[40]
  TGI: > 100 µM
[41]
  TGI: 89.7 µM
[42]
  TGI: 72.3 µM
[43]
  TGI: > 100 µM
[44]
  TGI: > 77.7 µM
[45]
  TGI: > 100 µM
[46]
  TGI: > 100 µM
[47]
  TGI: > 100 µM
[48]
  TGI: > 100 µM
[49]
  TGI: > 100 µM
[50]
  TGI: > 100 µM
[51]
  TGI: > 61.5 µM
[52]
  TGI: > 91.4 µM
[53]
  TGI: > 100 µM
[54]
  TGI: > 100 µM
[55]
  TGI: > 61.9 µM
[56]
  TGI: 50.2 µM
